According to publication PMC10119927, “Compact Rotaxane Superbases” (Journal of the American Chemical Society, 2023):
Where “and” joins values, the source holds several entries; their conditions need not be identical. Equal entries are not always repeated. Entries after “also recorded” stand apart in the source; their conditions may differ. Where two headings read alike, the source gives them in different places.

Experiments:
[1] = cited from earlier work
[2] = Hydrolytic decomposition in 1 M NaOD in 9:1 v/v CD3OD/D2O
[3] = pKaH+ determination by Lambert's method with reference bases (1H NMR); conditions: for pKaH+: Lambert's method
Protocol: The pKaH^+ values shown were determined in CD3CN using Lambert’s method[8] with appropriate reference bases (see Supporting Information, Section 2.0).

[4] = Base-mediated elimination of HBr from 4-bromophenethyl bromide: deprotonation kinetics and protonation vs alkylation; conditions: for Half-life, t1/2: calculated based on second-order kinetics; for half-life (h) (25 °C) / half-life (h) (80 °C): deprotonation of 4-bromophenethyl bromide
[5] = hydrolytic decomposition, 1 M NaOD, 9:1 CD3OD/D2O, 25 °C
[6] = 25 °C, 1 M NaOD in 9:1 d4-methanol:D2O, pseudo-first-order
[7] = hydrolytic decomposition, 1 M NaOD, 9:1 CD3OD/D2O, 80 °C
[8] = 80 °C, 1 M NaOD in 9:1 d4-methanol:D2O, pseudo-first-order
[9] = Table 1, conventional superbases
[10] = Table S1, conventional superbases

Structure (SMILES): NCCCCN [1,4-diaminobutane]
- pKaH+ ([1]; in CD3CN, reference base): 20.1

Structure (SMILES): C1COCCOCCOCCOCCOCCOCCO1.FC(F)(F)c1cc(CNCc2cc(C(F)(F)F)cc(C(F)(F)F)c2)cc(C(F)(F)F)c1 [21C7⊂3]
- hydrolytic stability (in words) ([2]; 1 M NaOD, 9:1 CD3OD/D2O): consumed completely within a matter of minutes; also recorded: decompose quickly
- half-life (25 °C) [2, 5]: <0.083 h
- pKaH+ (MeCN) ([3]; Table 1, rotaxanes): 24.9
- pKaH+ ([3]; in CD3CN): 24.9 ± 0.1
- increase in the basicity of the secondary amine upon encapsulation ([3]; rotaxane vs thread 3, from pKaH+ values): 10^13 fold
- Half-life, t1/2 ([4]; 80 °C): 169.69 days
- half-life (h) (25 °C) ([4]; 25 °C): >5000 h
- half-life (h) (80 °C) ([4]; 80 °C): 4073 h
- rate of substrate deprotonation relative to the other rotaxanes in the series ([4]; in words): much more slowly

Structure (SMILES): C1COCCOCCOCCOCCOCCOCCO1.FC(F)(F)c1cc(C[NH2+]Cc2cc(C(F)(F)F)cc(C(F)(F)F)c2)cc(C(F)(F)F)c1.F[P-](F)(F)(F)(F)F [21C7⊂3•HPF6]
- Half-life [2, 6]: < 0.083 h
- pKaH+ (MeCN) ([3]; Table S2, rotaxane HPF6 salts): 24.9

Structure (SMILES): C1COCCOCCOCCOCCOCCOCCO1.Cc1cc(C)cc(CNCc2cc(C)cc(C)c2)c1 [21C7⊂6]
- hydrolytic stability (in words) ([2]; 1 M NaOD, 9:1 CD3OD/D2O): stable; also recorded: excellent chemical stability
- half-life (25 °C) [2, 5]: >170 h
- half-life (80 °C) [2, 7]: >170 h
- pKaH+ (MeCN) ([3]; Table 1, rotaxanes): 32.2
- basicity higher than either non-interlocked component ([3]; in CD3CN): ~13 orders of magnitude
- pKaH+ ([3]; in CD3CN): 32.2 ± 0.6
- Half-life, t1/2 ([4]; 25 °C): 0.00625 days
- half-life (h) (25 °C) ([4]; 25 °C): 0.15 h
- rate of deprotonation of 4-bromophenethyl bromide relative to the conventional organic superbases ([4]; in words): several thousand times faster

Structure (SMILES): C1COCCOCCOCCOCCOCCOCCO1.Cc1cc(C)cc(C[NH2+]Cc2cc(C)cc(C)c2)c1.F[P-](F)(F)(F)(F)F [21C7⊂6•HPF6]
- Half-life [2, 8]: > 170 h
- pKaH+ (MeCN) ([3]; Table S2, rotaxane HPF6 salts): 32.2

Structure (SMILES): C1COCCOCCOCCOCCOCCOCCOCCO1.CC(C)(C)c1cc(CNCc2cc(C(C)(C)C)cc(C(C)(C)C)c2)cc(C(C)(C)C)c1 [24C8⊂2]
- hydrolytic stability (in words) ([2]; 1 M NaOD, 9:1 CD3OD/D2O): decompose quickly
- half-life (25 °C) [2, 5]: 6 h
- pKaH+ (MeCN) ([3]; Table 1, rotaxanes): 26.3
- pKaH+ ([3]; in CD3CN): 26.3 ± 0.22 and 26.3 ± 0.2
- Half-life, t1/2 ([4]; 80 °C): 10.8 days
- half-life (h) (25 °C) ([4]; 25 °C): >5000 h
- half-life (h) (80 °C) ([4]; 80 °C): 260 h
- rate of substrate deprotonation relative to the other rotaxanes in the series ([4]; in words): much more slowly

Structure (SMILES): C1COCCOCCOCCOCCOCCOCCOCCO1.CC(C)(C)c1cc(C[NH2+]Cc2cc(C(C)(C)C)cc(C(C)(C)C)c2)cc(C(C)(C)C)c1.F[P-](F)(F)(F)(F)F [24C8⊂2•HPF6]
- Half-life [2, 6]: 6.2 h
- pKaH+ (MeCN) ([3]; Table S2, rotaxane HPF6 salts): 26.3

Structure (SMILES): C1COCCOCCOCCOCCOCCOCCOCCO1.FC(F)(F)c1cc(CNCc2cc(C(F)(F)F)cc(C(F)(F)F)c2)cc(C(F)(F)F)c1 [24C8⊂3]
- hydrolytic stability (in words) ([2]; 1 M NaOD, 9:1 CD3OD/D2O): stable
- half-life (25 °C) [2, 5]: >170 h
- half-life (80 °C) [2, 7]: >170 h
- pKaH+ (MeCN) ([3]; Table 1, rotaxanes): 20.5
- pKaH+ ([3]; in CD3CN): 20.5 ± 0.1
- Half-life, t1/2 ([4]; 25 °C): 7.317 days
- half-life (h) (25 °C) ([4]; 25 °C): 176 h

Structure (SMILES): C1COCCOCCOCCOCCOCCOCCOCCO1.FC(F)(F)c1cc(C[NH2+]Cc2cc(C(F)(F)F)cc(C(F)(F)F)c2)cc(C(F)(F)F)c1.F[P-](F)(F)(F)(F)F [24C8⊂3•HPF6]
- Half-life [2, 8]: > 170 h
- pKaH+ (MeCN) ([3]; Table S2, rotaxane HPF6 salts): 20.5

Structure (SMILES): C1COCCOCCOCCOCCOCCOCCOCCO1.CC(C)(C)c1cc(CNCc2cc(C(F)(F)F)cc(C(F)(F)F)c2)cc(C(C)(C)C)c1 [24C8⊂4]
- pKaH+ ([3]; in CD3CN): 22.9 ± 0.3 and 22.9 ± 0.1

Structure (SMILES): C1COCCOCCOCCOCCOCCOCCOCCO1.COc1c(C(C)(C)C)cc(CNCc2cc(C(F)(F)F)cc(C(F)(F)F)c2)cc1C(C)(C)C [24C8⊂5]
- pKaH+ ([3]; in CD3CN): 23.2 ± 0.3 and 23.2 ± 0.2

Structure (SMILES): FC(F)(F)c1cc(C[NH2+]Cc2cc(C(F)(F)F)cc(C(F)(F)F)c2)cc(C(F)(F)F)c1.F[P-](F)(F)(F)(F)F.c1ccc2c(c1)OCCOCCOCCOc1ccccc1OCCOCCOCCO2 [DB24C8⊂3•HPF6]
- Half-life [2, 8]: > 170 h
- pKaH+ (MeCN) ([3]; Table S2, rotaxane HPF6 salts): 20.3

Structure (SMILES): F[P-](F)(F)(F)(F)F.O=C(CC[NH2+]Cc1cc(C(F)(F)F)cc(C(F)(F)F)c1)Nc1cc(C(F)(F)F)cc(C(F)(F)F)c1.c1ccc2c(c1)OCCOCCOCCOc1ccccc1OCCOCCOCCO2 [DB24C8⊂8•HPF6]
- Half-life [2, 8]: > 170 h
- pKaH+ (MeCN) ([3]; Table S2, rotaxane HPF6 salts): 20.7

Structure (SMILES): C1CCC2=NCCCN2CC1 [DBU, 1,8-diazabicyclo(5.4.0)undec-7-ene, reference compound]
- pKaH+ (MeCN) [1, 9]: 24.3[1]
- pKaH+ (MeCN) [1, 10]: 24.3
- pKaH+ (MeCN) ([1]; Table S2, reference superbases): 24.3
- Half-life ([2]; buffer, Half-life, 25 °C, 1 M NaOD in 9:1 d4-methanol:D2O, pseudo-first-order): 10.9 h
- Half-life ([2]; buffer, half-life (25 °C), hydrolytic decomposition, 1 M NaOD, 9:1 CD3OD/D2O, 25 °C): 11 h
- Half-life, t1/2 ([4]; 25 °C): 26.47 days
- half-life (h) (25 °C) ([4]; 25 °C): 635 h

Structure (SMILES): CN(C)P(=NC(C)(C)C)(N(C)C)N(C)C [P1-^tBu, tert-butylimino-tris(dimethylamino)phosphorane, reference compound]
- pKaH+ (MeCN) [1, 9]: 27.0[1]
- pKaH+ (MeCN) [1, 10]: 27
- pKaH+ (MeCN) ([1]; Table S2, reference superbases): 27.0
- Half-life [2, 8]: > 170 h
- half-life (25 °C) [2, 5]: >170 h
- half-life (80 °C) [2, 7]: >170 h
- Half-life, t1/2 ([4]; 25 °C): 17.45 days
- half-life (h) (25 °C) ([4]; 25 °C): 419 h

Structure (SMILES): CN(C)c1cccc2cccc(N(C)C)c12 [proton-sponge]
- pKaH+ ([1]; in MeCN): 18.6
